Counter-ions that a name gives are not always drawn.
Legend:
[1] = system: COLO 205 cell line; assay: Proliferation experiment in COLO 205 cell line (CellTiter-Glo); assay type: cell-based; settings: Homo sapiens, COLO 205 cells, 72 hours
Protocol: Proliferation experiment in COLO 205 cell line Tissue Culture. Cells were maintained in 10% FBS (Gibco #10099141)/RPMI 1640 (Gibco # A10491). The cells were harvested with 0.25% Trypsin/EDTA (Amresco #9002077), re-suspended in 10% FBS/RPMI 1640 and plated at 8,000 cells per well in 90 ul of media in a 96-well black plate with clear bottoms (Corning #3603). The cells were allowed to incubate overnight in a 37° C., 5% CO2 humidified tissue culture incubator. A 10-point test compound curve was prepared by serial diluting a 10 mM stock 1:3 in DMSO in a 384-well compound plate (costar #3656). The serial diluted compounds were transferred to the plate containing medium for further dilution. The final concentration was from 10 uM to 0.000508 uM. The serial diluted compounds were transferred to the plate containing cells by using a volley ([…]) and the cells were placed back in the incubator for 72 hours. Luminescent detection was carried out with CellTiter-Glo® Luminescent Cell Viability Assay (promega # G7572). Signal was read on TECAN Infinite F200.

[2] = biological target: CDC7/DBF4 (Homo sapiens (Human), UniProt O00311); assay: CDC7 biochemical assay (ADP-Glo, MCM2 substrate); settings: ATP 500 uM; MCM2 400 ug/ml; CDC7/DBF4 200 nM; 180 mins at 27° C.; read-out: CDC7 enzyme IC50 (nm)
Protocol: Biochemical Assay Method N-terminal GST-tagged CDC7 and DBF4 full-length proteins were co-expressed by baculovirus insect expression (BV) system and purified by GST affinity column. Used MCM2 protein as substrate, N-terminal His tag MCM2 was expressed by E. coli and purified by His affinity column. Biochemical assay was tested in the U-shaped bottom 384 plate (corning, #4514) with a final volume of […] at 27° C. The concentration of CDC7 was optimized by the enzyme titration experiment. CDC7 kinase was diluted in assay buffer (40 mM Tris.HCl pH 7.25, 100 ug/mL BSA, and 20 mM MgCl2) to get 2.4× enzyme solutions. Compounds were dissolved in 10 mM DMSO, and series diluted in DMSO from 0.3 mM to 0.3 nM (5 concentration pts); All dilutions were diluted 30× in assay buffer to get 6× compounds solutions. MCM2 Substrate and ATP were diluted to 2.4× mixed solution. Add 2 ul test compound solution to 384 assay plate, then add 5 ul substrate/ATP mixed solution, at last add 5 ul enzyme solution, incubate at 27° C. for 180 mins. Transfer 5 ul reaction solution to another 384 assay plate, then add 5 ul ADP-Glo™ Reagent (Promega) to each well and incubate at 27° C. for 40 mins; Add 10 ul Kinase Detection Reagent (Promega) to each well and incubate at 27° C. for 30 mins. 10 uM CDC7-3 compound was used as 100% inhibition while 100% DMSO control was used as 0% inhibition. Each test has three replications at least. The final concentration of the reagents: ATP was 500 uM; MCM2 was 400 ug/ml; CDC7/DBF4 was 200 nM. The data were obtained by TECAN F200 and calculated by GraphPad Prism 5.0; IC50 values were adjusted by Dose-response-Inhibition-Variable slope model.

CDC7/DBF4, sequence (O00311 whole entry): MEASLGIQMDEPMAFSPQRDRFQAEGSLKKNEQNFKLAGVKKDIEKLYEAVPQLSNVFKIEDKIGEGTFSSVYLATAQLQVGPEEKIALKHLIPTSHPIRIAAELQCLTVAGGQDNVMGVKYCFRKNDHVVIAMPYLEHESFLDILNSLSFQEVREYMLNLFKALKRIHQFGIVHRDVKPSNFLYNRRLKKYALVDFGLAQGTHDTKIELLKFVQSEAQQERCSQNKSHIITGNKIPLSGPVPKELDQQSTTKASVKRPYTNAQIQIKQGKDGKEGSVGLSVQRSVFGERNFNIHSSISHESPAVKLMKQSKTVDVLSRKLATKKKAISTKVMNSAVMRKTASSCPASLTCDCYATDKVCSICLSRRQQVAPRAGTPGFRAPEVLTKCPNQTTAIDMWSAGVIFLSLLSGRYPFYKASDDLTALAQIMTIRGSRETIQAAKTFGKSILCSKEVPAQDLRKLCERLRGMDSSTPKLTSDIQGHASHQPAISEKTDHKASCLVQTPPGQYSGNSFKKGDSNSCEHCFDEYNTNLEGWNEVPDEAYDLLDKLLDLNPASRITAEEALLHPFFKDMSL
CDC7/DBF4, sequence (Q9UBU7 whole entry partner): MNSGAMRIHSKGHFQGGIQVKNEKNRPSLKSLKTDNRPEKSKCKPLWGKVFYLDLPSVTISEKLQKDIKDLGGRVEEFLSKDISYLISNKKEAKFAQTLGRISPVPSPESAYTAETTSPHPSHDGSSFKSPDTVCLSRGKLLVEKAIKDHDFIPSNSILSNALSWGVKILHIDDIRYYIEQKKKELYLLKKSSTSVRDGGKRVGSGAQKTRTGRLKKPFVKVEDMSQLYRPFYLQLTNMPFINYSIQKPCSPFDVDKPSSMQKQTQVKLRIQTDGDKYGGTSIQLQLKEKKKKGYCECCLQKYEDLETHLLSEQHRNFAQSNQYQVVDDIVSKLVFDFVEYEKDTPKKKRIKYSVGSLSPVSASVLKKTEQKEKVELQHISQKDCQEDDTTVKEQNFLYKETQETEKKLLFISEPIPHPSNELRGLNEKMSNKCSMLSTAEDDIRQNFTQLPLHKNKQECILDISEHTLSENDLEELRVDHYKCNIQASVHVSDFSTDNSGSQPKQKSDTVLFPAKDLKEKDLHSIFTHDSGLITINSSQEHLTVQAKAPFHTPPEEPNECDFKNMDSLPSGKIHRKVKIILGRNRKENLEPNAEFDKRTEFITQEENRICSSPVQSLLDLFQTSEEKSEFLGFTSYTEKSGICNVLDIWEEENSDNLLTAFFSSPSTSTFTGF

| SMILES | GI50 [1] [µM] | IC50 [2] [µM] |
| --- | --- | --- |
| CC(C)[C@H](N)c1nc2cc(-c3ccnc(Cl)c3)sc2c(=O)[nH]1 [Compound 7a, (S)-2-(1-amino-2-methylpropyl)-6-(2-chloropyridin-4-yl)thieno[3,2-d]pyrimidin-4(3H)-one hydrochloride] | 1 to 10 |  |
| Cc1cc(-c2cc3nc([C@@H](N)C(C)C)[nH]c(=O)c3s2)ccn1 [Compound 7b, (S)-2-(1-amino-2-methylpropyl)-6-(2-methylpyridin-4-yl)thieno[3,2-d]pyrimidin-4(3H)-one hydrochloride] | 1 to 10 |  |
| CC(C)[C@H](N)c1nc2cc(-c3cc[nH]n3)sc2c(=O)[nH]1 [Compound 7c, (S)-2-(1-amino-2-methylpropyl)-6-(1H-pyrazol-3-yl)thieno[3,2-d]pyrimidin-4(3H)-one hydrochloride] | > 10 | 1 to 10 |
| CC(C)[C@H](N)c1nc2cc(-c3cc(F)ncc3F)sc2c(=O)[nH]1 [Compound 7d, (S)-2-(1-amino-2-methylpropyl)-6-(2,5-difluoropyridin-4-yl)thieno[3,2-d]pyrimidin-4(3H)-one hydrochloride] | 0.1 to 1 | 0.1 to 1 |
| CC(C)[C@H](N)c1nc2cc(-c3cnoc3)sc2c(=O)[nH]1 [Compound 7e, (S)-2-(1-amino-2-methylpropyl)-6-(isoxazol-4-yl)thieno[3,2-d]pyrimidin-4(3H)-one hydrochloride] | > 10 | > 10 |
| CC[C@H](N)c1nc2cc(-c3ccnc(F)c3)sc2c(=O)[nH]1 [Compound 13a, (S)-2-(1-aminopropyl)-6-(2-fluoropyridin-4-yl)thieno[3,2-d]pyrimidin-4(3H)-one hydrochloride] | 0.1 to 1 |  |
| CC[C@H](N)c1nc2cc(-c3ccncc3F)sc2c(=O)[nH]1 [Compound 13b, (S)-2-(1-aminopropyl)-6-(3-fluoropyridin-4-yl)thieno[3,2-d]pyrimidin-4(3H)-one hydrochloride] | < 0.1 | < 0.1 |
| C[C@H](N)c1nc2cc(-c3ccncc3F)sc2c(=O)[nH]1 [Compound 21, (S)-2-(1-aminoethyl)-6-(3-fluoropyridin-4-yl)thieno[3,2-d]pyrimidin-4(3H)-one hydrochloride] | 0.1 to 1 | 0.1 to 1 |

Other lines, results leading:

| GI50 [1] [µM] | IC50 [2] [µM] | SMILES |
| --- | --- | --- |
| < 0.1 | < 0.1 | N[C@H](c1nc2cc(-c3ccncc3F)sc2c(=O)[nH]1)C1CC1 [Compound 25, (S)-2-(amino(cyclopropyl)methyl)-6-(3-fluoropyridin-4-yl)thieno[3,2-d]pyrimidin-4(3H)-one hydrochloride] |
| 1 to 10 | 1 to 10 | CC(C)[C@@H](N)c1nc2cc(-c3ccncc3F)sc2c(=O)[nH]1 [Compound 29, (R)-2-(1-amino-2-methylpropyl)-6-(3-fluoropyridin-4-yl)thieno[3,2-d]pyrimidin-4(3H)-one hydrochloride] |
| 1 to 10 |  | CN[C@H](c1nc2cc(-c3ccnc(F)c3)sc2c(=O)[nH]1)C(C)C [Compound 36, (S)-6-(2-fluoropyridin-4-yl)-2-(2-methyl-1-(methylamino)propyl)thieno[3,2-d]pyrimidin-4(3H)-one hydrochloride] |
| 1 to 10 | 1 to 10 | CC(C)(N)c1nc2cc(-c3ccnc(F)c3)sc2c(=O)[nH]1 [Compound 39, 2-(2-aminopropan-2-yl)-6-(2-fluoropyridin-4-yl)thieno[3,2-d]pyrimidin-4(3H)-one hydrochloride] |
| > 10 | > 10 | CC(C)[C@H](N)c1nc2cc(-c3c[nH]cn3)sc2c(=O)[nH]1 [Compound 45, (S)-2-(1-amino-2-methylpropyl)-6-(1H-imidazol-4-yl)thieno[3,2-d]pyrimidin-4(3H)-one hydrochloride] |
| 1 to 10 | 1 to 10 | CC(C)[C@H](N)c1nc2cc(-c3ccnnc3)sc2c(=O)[nH]1 [Compound 49, (S)-2-(1-amino-2-methylpropyl)-6-(pyridazin-4-yl)thieno[3,2-d]pyrimidin-4(3H)-one hydrochloride] |
| 0.1 to 1 | 0.1 to 1 | CC(C)[C@H](N)c1nc2cc(-c3ccncn3)sc2c(=O)[nH]1 [Compound 53, (S)-2-(1-amino-2-methylpropyl)-6-(pyrimidin-4-yl)thieno[3,2-d]pyrimidin-4(3H)-one hydrochloride] |
| 1 to 10 | 1 to 10 | CC(C)[C@H](N)c1nc2cc(-c3cn[nH]n3)sc2c(=O)[nH]1 [Compound 58, (S)-2-(1-amino-2-methylpropyl)-6-(2H-1,2,3-triazol-4-yl)thieno[3,2-d]pyrimidin-4(3H)-one hydrochloride] |
| > 10 | > 10 | CC(C)[C@H](N)c1nc2cc(-c3cc[nH]c3)sc2c(=O)[nH]1 [Compound 65, (S)-2-(1-amino-2-methylpropyl)-6-(1H-pyrrol-3-yl)thieno[3,2-d]pyrimidin-4(3H)-one hydrochloride] |
| > 10 | 1 to 10 | CC(C)[C@H](N)c1nc2cc(N3CCNCC3)sc2c(=O)[nH]1 [Compound 67, (S)-2-(1-amino-2-methylpropyl)-6-(piperazin-1-yl)thieno[3,2-d]pyrimidin-4(3H)-one hydrochloride] |
